pIC50: −log10 of the molar value.
Legend:
[1] = target: BB7 (RNA-dependent RNA polymerase hepatitis C virus protein sequence derived from HCV replicon) (Hepatitis C virus genotype 1b, UniProt Q9WMX2); test: Hepatitis C polymerase inhibition, BB7 sequence; assay type: biochemical; details: Table 1B
[2] = target: T1, NS5B from the BK strain (genotype 1b) (Hepatitis C virus genotype 1b, UniProt P26663); test: Hepatitis C polymerase inhibition, NS5B BK strain, 33P-GTP filter assay; assay type: biochemical; details: Table 1B; NS5B BK strain; read-out: BK IC50
T1 construct: NS5B from the BK strain (genotype 1b) is expressed in E. coli as a protein in which the 21 C-terminal amino acids are replaced; made in house; host or cells: E. coli
T1 sequence (P26663 2420-2989): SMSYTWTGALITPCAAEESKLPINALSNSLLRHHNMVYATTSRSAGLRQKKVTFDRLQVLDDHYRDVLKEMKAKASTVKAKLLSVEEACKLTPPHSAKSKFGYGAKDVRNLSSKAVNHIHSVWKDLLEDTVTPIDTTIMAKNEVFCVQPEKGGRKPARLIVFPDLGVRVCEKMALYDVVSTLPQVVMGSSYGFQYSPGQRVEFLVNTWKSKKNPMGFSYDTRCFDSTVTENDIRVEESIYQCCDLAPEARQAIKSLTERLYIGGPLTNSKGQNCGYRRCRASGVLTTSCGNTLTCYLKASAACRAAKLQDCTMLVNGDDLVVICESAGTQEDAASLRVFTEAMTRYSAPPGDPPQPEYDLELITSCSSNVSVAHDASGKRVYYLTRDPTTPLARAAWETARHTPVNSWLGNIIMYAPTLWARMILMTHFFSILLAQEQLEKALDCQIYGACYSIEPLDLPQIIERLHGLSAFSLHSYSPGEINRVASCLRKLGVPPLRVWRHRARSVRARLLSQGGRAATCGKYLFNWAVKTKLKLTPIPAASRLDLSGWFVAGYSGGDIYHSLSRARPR
Outline: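 E. coli-expressed NS5B (BK, genotype 1b) with the 21 C-terminal residues replaced by a linker-His6 tag was preincubated with compound for 15 min at room temperature. It then extended a hairpin-primed heteropolymeric RNA (~3 nM, ~760 nt product) with α-[33P]-GTP for 2 h at 22–25° C. The reaction was stopped with EDTA, and incorporated label was counted on filters.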

BB7 (RNA-dependent RNA polymerase hepatitis C virus protein sequence derived from HCV replicon), sequence (Q9WMX2 2420-3010): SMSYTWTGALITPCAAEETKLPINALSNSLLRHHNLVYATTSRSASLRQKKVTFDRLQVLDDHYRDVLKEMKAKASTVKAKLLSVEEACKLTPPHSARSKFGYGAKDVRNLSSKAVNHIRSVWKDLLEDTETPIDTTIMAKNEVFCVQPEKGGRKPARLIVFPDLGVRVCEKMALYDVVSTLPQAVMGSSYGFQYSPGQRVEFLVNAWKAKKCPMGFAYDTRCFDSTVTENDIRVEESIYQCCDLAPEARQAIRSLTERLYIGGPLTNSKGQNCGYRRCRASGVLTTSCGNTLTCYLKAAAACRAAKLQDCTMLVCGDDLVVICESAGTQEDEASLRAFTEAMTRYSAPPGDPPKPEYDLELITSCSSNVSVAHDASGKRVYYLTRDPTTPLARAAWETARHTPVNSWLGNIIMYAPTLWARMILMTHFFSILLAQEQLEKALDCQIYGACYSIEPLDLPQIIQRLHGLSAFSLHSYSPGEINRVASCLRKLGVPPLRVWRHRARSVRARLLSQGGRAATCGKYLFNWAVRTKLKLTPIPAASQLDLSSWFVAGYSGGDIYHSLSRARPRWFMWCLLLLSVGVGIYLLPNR

Compound	pIC50 [1]	pIC50 [2]
CCOCC1(CC(=O)O)OCCc2c1[nH]c1c(Cl)ccc(C(F)(F)F)c21 (centres unmarked) [Example 266, (8-chloro-1-ethoxymethyl-5-trifluoromethyl-1,3,4,9-tetrahydropyrano[3,4-b]indol-1-yl)acetic acid]	4.77	4.85
O=C(O)CC1(C2CCC2)OCCc2c1[nH]c1c(Cl)ccc(C(F)(F)F)c21 (centres unmarked) [Example 267, (8-chloro-1-cyclobutyl-5-trifluoromethyl-1,3,4,9-tetrahydropyrano[3,4-b]indol-1-yl)acetic acid]	5.64	6.18
CCCC1(CC(=O)O)OCCc2c1[nH]c1c(F)ccc(C(F)(F)F)c21 (centres unmarked) [Example 268, (8-fluoro-1-propyl-5-trifluoromethyl-1,3,4,9-tetrahydropyrano[3,4-b]indol-1-yl)acetic acid]	5.21	5.34
O=C(O)CC1(C2CCC2)OCCc2c1[nH]c1c(F)ccc(C(F)(F)F)c21 (centres unmarked) [Example 269, (1-cyclobutyl-8-fluoro-5-trifluoromethyl-1,3,4,9-tetrahydropyrano[3,4-b]indol-1-yl)acetic acid]	5.03	5.03
O=C(O)CC1(C2CCCC2)OCCc2c1[nH]c1c(F)ccc(C(F)(F)F)c21 (centres unmarked) [Example 270, (1-cyclopentyl-8-fluoro-5-trifluoromethyl-1,3,4,9-tetrahydropyrano[3,4-b]indol-1-yl)acetic acid]	4.77	4.70
CCCC1(CC(=O)O)OCCc2c1[nH]c1c(C(F)(F)F)ccc(C(F)(F)F)c21 (centres unmarked) [Example 271, [5,8-bis(trifluoromethyl)-1-propyl-1,3,4,9-tetrahydropyrano[3,4-b]indol-1-yl]acetic acid]	5.46	5.57
CCCC1(CC(=O)O)OCCc2c1[nH]c1c(C)ccc(C(F)(F)F)c21 (centres unmarked) [Example 272, (8-methyl-1-propyl-5-trifluoromethyl-1,3,4,9-tetrahydropyrano[3,4-b]indol-1-yl)acetic acid]	5.82	6.30
CCCCC1(CC(=O)O)OCCc2c1[nH]c1c(C)ccc(C(F)(F)F)c21 (centres unmarked) [Example 273, (8-methyl-1-butyl-5-trifluoromethyl-1,3,4,9-tetrahydropyrano[3,4-b]indol-1-yl)acetic acid]	5.19	5.85
Cc1ccc(C(F)(F)F)c2c3c([nH]c12)C(CC(=O)O)(C1CC1)OCC3 (centres unmarked) [Example 274, (1-cyclopropyl-8-methyl-5-trifluoromethyl-1,3,4,9-tetrahydropyrano[3,4-b]indol-1-yl)acetic acid]	< 4.59	5.03
Cc1ccc(C(F)(F)F)c2c3c([nH]c12)C(CC(=O)O)(C1CCC1)OCC3 (centres unmarked) [Example 275, (1-cyclobutyl-8-methyl-5-trifluoromethyl-1,3,4,9-tetrahydropyrano[3,4-b]indol-1-yl)acetic acid]	5.46	5.92
CCCC1(CC(=O)O)OCCc2c1[nH]c1c(C#N)ccc(C(F)(F)F)c21 (centres unmarked) [Example 276, (8-cyano-1-propyl-5-trifluoromethyl-1,3,4,9-tetrahydropyrano[3,4-b]indol-1-yl)acetic acid]	5.77	5.89
CCC(C)C1(CC(=O)O)OCCc2c1[nH]c1c(C(N)=O)ccc(C(F)(F)F)c21 [Example 278, (1R*,10S)-[8-aminocarbonyl-1-(1-methylpropyl)-5-trifluoromethyl-1,3,4,9-tetrahydropyrano[3,4-b]indol-1-yl]acetic acid]	4.64	4.82
Cc1ccc(C#N)c2c3c([nH]c12)C(CCC(F)(F)F)(CC(=O)O)OCC3 (centres unmarked) [Example 280, [5-cyano-8-methyl-1-(3,3,3-trifluoropropyl)-1,3,4,9-tetrahydropyrano[3,4-b]indol-1-yl]acetic acid]	5.70	6.10
COCC1(CC(=O)O)OCCc2c1[nH]c1c(C)ccc(C#N)c21 (centres unmarked) [Example 281, (5-cyano-1-methoxymethyl-8-methyl-1,3,4,9-tetrahydropyrano[3,4-b]indol-1-yl)acetic acid]	< 4.52	< 4.52
CSCC1(CC(=O)O)OCCc2c1[nH]c1c(C)ccc(C#N)c21 (centres unmarked) [Example 282, (5-cyano-1-methylthiomethyl-8-methyl-1,3,4,9-tetrahydropyrano[3,4-b]indol-1-yl)acetic acid]	4.66	4.89
Cc1ccc(C#N)c2c3c([nH]c12)C(CC(=O)O)(C1CC1)OCC3 (centres unmarked) [Example 283, (5-cyano-1-cyclopropyl-8-methyl-1,3,4,9-tetrahydropyrano[3,4-b]indol-1-yl)acetic acid]	< 4.57	4.82
Cc1ccc(C#N)c2c3c([nH]c12)C(CC(=O)O)(C1CCC1)OCC3 (centres unmarked) [Example 284, (5-cyano-1-cyclobutyl-8-methyl-1,3,4,9-tetrahydropyrano[3,4-b]indol-1-yl)acetic acid]	5.64	6.00

Compound	pIC50 [1]	pIC50 [2]
Cc1ccc(C#N)c2c3c([nH]c12)[C@@](CC(=O)O)(C1CCC1)OCC3 [Example 285, (1R)-(5-cyano-1-cyclobutyl-8-methyl-1,3,4,9-tetrahydropyrano[3,4-b]indol-1-yl)acetic acid]	5.96	6.40
Cc1ccc(C#N)c2c3c([nH]c12)[C@](CC(=O)O)(C1CCC1)OCC3 [Example 286, (1S)-(5-cyano-1-cyclobutyl-8-methyl-1,3,4,9-tetrahydropyrano[3,4-b]indol-1-yl)acetic acid]	< 4.52	< 4.52
Cc1ccc(C#N)c2c3c([nH]c12)C(CC(=O)O)(C1CCCC1)OCC3 (centres unmarked) [Example 287, (5-cyano-1-cyclopentyl-8-methyl-1,3,4,9-tetrahydropyrano[3,4-b]indol-1-yl)acetic acid]	5.19	5.29
Cc1ccc(C#N)c2c3c([nH]c12)C(CC(=O)O)(CC1CCCC1)OCC3 (centres unmarked) [Example 288, (5-cyano-1-cyclopentylmethyl-8-methyl-1,3,4,9-tetrahydropyrano[3,4-b]indol-1-yl)acetic acid]	4.74	4.66
CC[C@H](C)[C@@]1(CC(=O)O)OCCc2c1[nH]c1c(C)ccc(C#N)c21 [Example 292, (1R,10S)-[5-cyano-8-methyl-1-(1-methylpropyl)-1,3,4,9-tetrahydropyrano[3,4-b]indol-1-yl]acetic acid]	6.59	6.89
CC[C@H](C)[C@]1(CC(=O)O)OCCc2c1[nH]c1c(C)ccc(C#N)c21 [Example 293, (1S,10S)-[5-cyano-8-methyl-1-(1-methylpropyl)-1,3,4,9-tetrahydropyrano[3,4-b]indol-1-yl]acetic acid]	< 4.52	< 4.52
CCCC1(CC(=O)O)OCCc2c1[nH]c1c(CC)ccc(C#N)c21 (centres unmarked) [Example 295, (5-cyano-8-ethyl-1-propyl-1,3,4,9-tetrahydropyrano[3,4-b]indol-1-yl)acetic acid]	5.51	5.44
CCCCC1(CC(=O)O)OCCc2c1[nH]c1c(CC)ccc(C#N)c21 (centres unmarked) [Example 296, (1-butyl-5-cyano-8-ethyl-1,3,4,9-tetrahydropyrano[3,4-b]indol-1-yl)acetic acid]	5.20	5.14
CCCC1(CC(=O)O)OCCc2c1[nH]c1c(C(C)C)ccc(C#N)c21 (centres unmarked) [Example 297, [5-cyano-8-(1-methylethyl)-1-propyl-1,3,4,9-tetrahydropyrano[3,4-b]indol-1-yl]acetic acid]	5.55	5.74
CCCC1(CC(=O)O)OCCc2c1[nH]c1c(C)ccc([N+](=O)[O-])c21 (centres unmarked) [Example 298, (8-methyl-5-nitro-1-propyl-1,3,4,9-tetrahydropyrano[3,4-b]indol-1-yl)acetic acid]	6.30	6.52
Cc1ccc([N+](=O)[O-])c2c3c([nH]c12)C(CC(=O)O)(C1CCC1)OCC3 (centres unmarked) [Example 299, (1-cyclobutyl-8-methyl-5-nitro-1,3,4,9-tetrahydropyrano[3,4-b]indol-1-yl]acetic acid]	6.05	6.30
N#Cc1ccc(F)c2[nH]c3c(c12)CCOC3(CCC(F)(F)F)CC(=O)O (centres unmarked) [Example 301, [5-cyano-8-fluoro-1-(3,3,3-trifluoropropyl)-1,3,4,9-tetrahydropyrano[3,4-b]indol-1-yl]acetic acid]	4.95	5.27
C=CCCC1(CC(=O)O)OCCc2c1[nH]c1c(F)ccc(C#N)c21 (centres unmarked) [Example 302, [1-(3-butenyl)-5-cyano-8-fluoro-1,3,4,9-tetrahydropyrano[3,4-b]indol-1-yl]acetic acid]	4.74	5.40
COCC1(CC(=O)O)OCCc2c1[nH]c1c(F)ccc(C#N)c21 (centres unmarked) [Example 303, (5-cyano-8-fluoro-1-methoxymethyl-1,3,4,9-tetrahydropyrano[3,4-b]indol-1-yl)acetic acid]	< 4.52	< 4.52
COCCC1(CC(=O)O)OCCc2c1[nH]c1c(F)ccc(C#N)c21 (centres unmarked) [Example 304, [5-cyano-8-fluoro-1-(2-methoxyethyl)-1,3,4,9-tetrahydropyrano[3,4-b]indol-1-yl]acetic acid]	< 4.52	< 4.52
CSCC1(CC(=O)O)OCCc2c1[nH]c1c(F)ccc(C#N)c21 (centres unmarked) [Example 305, (5-cyano-8-fluoro-1-methylthiomethyl-1,3,4,9-tetrahydropyrano[3,4-b]indol-1-yl)acetic acid]	< 4.52	< 4.52
N#Cc1ccc(F)c2[nH]c3c(c12)CCOC3(CC(=O)O)C1CC1 (centres unmarked) [Example 306, (5-cyano-1-cyclopropyl-8-fluoro-1,3,4,9-tetrahydropyrano[3,4-b]indol-1-yl)acetic acid]	< 4.52	< 4.52

— patent publication US7217730B2, “Method for the use of pyranoindole derivatives to treat infection with Hepatitis C virus” (Wyeth, priority 2002, dated 2007)
